Structures are written as SMILES. Structures can show the parent of a compound that is named as a salt. Where only a bound is given, the exact number is not on record here.

The test system of the first assay is LP-1 cell line. Put plainly: Cell-based pERK ELISA method, LP-1 cells. The following applies: Homo sapiens, LP-1, read-out: IC50 less than 1 μM or at least 50% inhibition at a concentration of 1 μM, LP-1 pERK ELISA. For orientation: In an ELISA, binding on a coated surface is turned into a signal by an enzyme label.
In the case of `CCNC(=O)Nc1cc(OC)cc(-c2cnc3cc(-c4ccc(F)cc4)ccn23)c1` [Example 216, 1-Ethyl-3-{3-[7-(4-fluoro-phenyl)-imidazo[1,2-a]pyridin-3-yl]-5-methoxy-phenyl}-urea], the IC50 was under 1 µM.
With `CCNC(=O)Nc1cc(-c2cnc3cc(-c4ccc(F)cc4)ccn23)ccc1F` [Example 266, 1-Ethyl-3-{2-fluoro-5-[7-(4-fluoro-phenyl)-imidazo[1,2-a]pyridin-3-yl]-phenyl}-urea], the IC50 is under 1 µM.
For `CCNC(=O)Nc1cccc(-c2cnc3cc(-c4ccc(N5CCCCC5)nc4)ccn23)c1` [Example 58, 1-Ethyl-3-{3-[7-(3,4,5,6-tetrahydro-2H-[1,2′]bipyridinyl-5′-yl)-imidazo[1,2-a]pyridin-3-yl]-phenyl}-urea hydro-chloride salt], the IC50 was under 1 µM.
As for `O=C(NCC(F)(F)F)Nc1cccc(-c2cnc3cc(-c4cccc(NC5CCOCC5)c4)ccn23)c1` [Example 244, 1-(3-{7-[3-(Tetrahydro-pyran-4-ylamino)-phenyl]-imidazo[1,2-a]pyridin-3-yl}-phenyl)-3-(2,2,2-trifluoro-ethyl)-urea], the IC50 was under 1 µM.
As for `O=C(NCC(F)(F)F)Nc1cccc(-c2cnc3cc(C4CC4)ccn23)c1` [Example 334, 1-[3-(7-Cyclopropyl-imidazo[1,2-a]pyridin-3-yl)-phenyl]-3-(2,2,2-trifluoro-ethyl)-urea Formate], the IC50 was under 1 µM.
For `COc1cccc(-c2ccn3c(-c4cccc(NC(=O)NCC(F)(F)F)c4)cnc3c2)c1` [Example 279, 1-{3-[7-(3-Methoxy-phenyl)-imidazo[1,2-a]pyridin-3-yl]-phenyl}-3-(2,2,2-trifluoro-ethyl)-urea], the IC50 is under 1 µM.
Turning to `N#Cc1ccn2c(-c3cccc(NC(=O)NCC(F)(F)F)c3)cnc2c1` [Example 341, 1-[3-(7-Cyano-imidazo[1,2-a]pyridin-3-yl)-phenyl]-3-(2,2,2-trifluoro-ethyl)-urea], the IC50 was under 1 µM.
With `Cc1cc2ncc(-c3cccc(NC(=O)NCC(F)(F)F)c3)n2cc1Cl` [Example 346, 1-[3-(6-Chloro-7-methyl-imidazo[1,2-a]pyridin-3-yl)-phenyl]-3-(2,2,2-trifluoro-ethyl)-urea], the IC50 is under 1 µM.
With `CC(=O)Nc1cc(C#N)cc(-c2cnc3cc(-c4cccc(CN5CCOCC5)c4)ccn23)c1` [Example 28, N-{3-Cyano-5-[7-(3-morpholin-4-ylmethyl-phenyl)-imidazo[1,2-a]pyridin-3-yl]-phenyl}-acetamide], the IC50 is under 1 µM.
Take `CC(=O)Nc1cccc(-c2cnc3cc(-c4cccc(CO)c4)ccn23)c1` [Example 8, N-{3-[7-(3-Hydroxymeth-yl-phenyl)-imidazo[1,2-a]pyridin-3-yl]-phenyl}-acetamide]: the IC50 is under 1 µM.
As for `CCNC(=O)Nc1cccc(-c2cnc3cc(-c4ccc(F)cc4)ccn23)c1` [Example 15, 1-Ethyl-3-{3-[7-(4-fluoro-phenyl)-imidazo[1,2-a]pyridin-3-yl]-phenyl}-urea formate salt], the IC50 is under 1 µM.

The assay is the same for the next values; noted with them: Homo sapiens, LP-1, read-out: LP-1 pERK ELISA (μM).
As to `CC#Cc1ccn2c(-c3cccc(NC(=O)NCC(F)(F)F)c3)cnc2c1` [Example 396, 1-[3-(7-Prop-1-ynyl-imidazo[1,2-a]pyridin-3-yl)-phenyl]-3-(2,2,2-trifluoro-ethyl)-urea], the IC50 was found to be 0.065 µM.
In the case of `CSc1nnc(-c2ccn3c(-c4cccc(NC(=O)NCC(F)(F)F)c4)cnc3c2)o1` [Example 354, 1-{3-[7-(5-Methylsulfanyl-[1,3,4]oxadiazol-2-yl)-imidazo[1,2-a]pyridin-3-yl]-phenyl}-3-(2,2,2-trifluoro-ethyl)-urea], the IC50 is 0.0157 µM.
As for `Cn1nnc(-c2ccn3c(-c4cccc(NC(=O)NCC(F)(F)F)c4)cnc3c2)n1` [Example 359, 1-{3-[7-(2-Methyl-2H-tetrazol-5-yl)-imidazo[1,2-a]pyridin-3-yl]-phenyl}-3-(2,2,2-trifluoro-ethyl)-urea], the IC50 came to 0.033 µM.

These data come from US8895745B2, “Bicyclic heterocyclic compounds as FGFR inhibitors” (Astex Therapeutics Limited, priority 2006, dated 2014).
